Source: PubChem BioAssay (NCI)
Values joined by “and” are separate entries in the source; they are usually repeats but may differ in a detail not shown here. Equal entries are not always repeated.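 Compound exposure: 48 hours, 5 concentrations, 96-well plates. Abbreviation: GI50, concentration required for 50% inhibition of growth. TGI: total growth inhibition.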

Experiments:
Experiment in all cases: DTP human tumour cell line panel, 48 h
[1] = test system: MDA-MB-468 breast
[2] = test system: PC-3 prostate
[3] = test system: OVCAR-3 ovarian
[4] = test system: RXF 393 renal
[5] = test system: NCI-H23 lung
[6] = test system: K-562 leukemia
[7] = test system: NCI-H522 lung
[8] = test system: HS 578T breast
[9] = test system: SN12C renal
[10] = test system: UACC-62 melanoma
[11] = test system: SF-268 CNS
[12] = test system: IGROV1 ovarian
[13] = test system: SNB-75 CNS
[14] = test system: OVCAR-4 ovarian
[15] = test system: NCI-H460 lung
[16] = test system: A498 renal
[17] = test system: HL-60(TB) leukemia
[18] = test system: CCRF-CEM leukemia
[19] = test system: M14 melanoma
[20] = test system: U251 CNS
[21] = test system: OVCAR-5 ovarian
[22] = test system: EKVX NSCLC
[23] = test system: MALME-3M melanoma
[24] = test system: DU-145 prostate
[25] = test system: SW-620 colon
[26] = test system: MDA-MB-231 breast
[27] = test system: MOLT-4 leukemia
[28] = test system: HCT-116 colon
[29] = test system: HT29 colon
[30] = test system: 786-0 renal
[31] = test system: SK-MEL-28 melanoma
[32] = test system: MCF7 breast
[33] = test system: BT-549 breast
[34] = test system: ACHN renal
[35] = test system: UACC-257 melanoma
[36] = test system: MDA-MB-435
[37] = test system: LOX IMVI melanoma
[38] = test system: SF-539 CNS
[39] = test system: SR leukemia
[40] = test system: RPMI-8226 leukemia
[41] = test system: KM12 colon
[42] = test system: A549 NSCLC
[43] = test system: SK-MEL-5 melanoma
[44] = test system: COLO 205 colon
[45] = test system: HOP-92 NSCLC
[46] = test system: HOP-62 NSCLC
[47] = test system: TK-10 renal
[48] = test system: NCI-H226 lung
[49] = test system: SK-OV-3 ovarian
[50] = test system: HCT-15 colon
[51] = test system: UO-31 renal
[52] = test system: SF-295 CNS
[53] = test system: CAKI-1 renal
[54] = test system: OVCAR-8 ovarian
[55] = test system: HCC-2998 colon
[56] = test system: SNB-19 CNS
[57] = test system: T-47D breast

## O=NN(CC(=O)NNc1ccccc1)CC(=O)NNc1ccccc1
[1]
  GI50: > 78.3 µM
  TGI: > 100 µM

## Cc1nc2sc(C(=O)Nc3cccc4c3OCCO4)c(N)c2cc1C(C)O (stereo not drawn)
[1]
  GI50: 3.64 µM
  TGI: > 100 µM

## O=C(Nc1cccc2[nH]c(C(F)(F)F)nc12)c1ccc(Br)cc1F
[1]
  GI50: 2.4 µM
  TGI: 7.05 µM

## Nc1ccccc1SC(CC(=O)c1ccccc1)c1c(Cl)cccc1Cl (stereo not drawn)
[1]
  GI50: 6.3 µM
  TGI: 27.9 µM

## Nc1ncnc2occ(-c3ccc(NC(=O)Nc4cccc(C(F)(F)F)c4)cc3)c12
[1]
  GI50: 3.62 µM
  TGI: 11.8 µM

## O=C(NCCc1nccs1)c1cnc2c(S)cccc2c1
[1]
  GI50: 4.13 µM
  TGI: 39 µM

## Cc1sc(C(NC(=O)OCCn2c([N+](=O)[O-])cnc2C)C(F)(F)Cl)nc1-c1ccc(OC(F)(F)F)cc1 (stereo not drawn)
[2]
  GI50: 2.65 µM
  TGI: 14.8 µM
[3]
  GI50: 3.68 µM
  TGI: 13.3 µM
[4]
  GI50: 2.65 µM
  TGI: 12.6 µM
[5]
  GI50: 7.46 µM
  TGI: 22.7 µM
[6]
  GI50: 3.62 µM
  TGI: > 100 µM
[7]
  GI50: 3.82 µM
  TGI: 15.3 µM
[8]
  GI50: 2.55 µM
  TGI: 33 µM
[1]
  GI50: 2.37 µM
  TGI: 8.73 µM
[9]
  GI50: 4.47 µM
  TGI: 15.9 µM
[10]
  GI50: 3.53 µM
  TGI: 15.4 µM
[11]
  GI50: 3.6 µM
  TGI: 16.3 µM
[12]
  GI50: 6.15 µM
  TGI: 19.5 µM
[13]
  GI50: 1.43 µM
  TGI: 14.2 µM
[14]
  GI50: 3.85 µM
  TGI: 15.7 µM
[15]
  GI50: 3.31 µM
  TGI: > 100 µM
[16]
  GI50: 4.98 µM
  TGI: 20.6 µM
[17]
  GI50: 4.06 µM
  TGI: 24.1 µM
[18]
  GI50: 2.32 µM
  TGI: 16.4 µM
[19]
  GI50: 4.56 µM
  TGI: 18.2 µM
[20]
  GI50: 5.38 µM
  TGI: 19.2 µM
[21]
  GI50: 4.28 µM
  TGI: 17.6 µM
[22]
  GI50: 2.8 µM
  TGI: 12.6 µM
[23]
  GI50: 6.79 µM
  TGI: 21.8 µM
[24]
  GI50: 4.97 µM
  TGI: 17.9 µM
[25]
  GI50: 7.32 µM
  TGI: > 100 µM
[26]
  GI50: 3.37 µM
  TGI: 12.3 µM
[27]
  GI50: 3.74 µM
  TGI: 16.5 µM
[28]
  GI50: 4.78 µM
  TGI: 20.1 µM
[29]
  GI50: 3.56 µM
  TGI: 13 µM
[30]
  GI50: 7.35 µM
  TGI: 20.7 µM
[31]
  GI50: 4.84 µM
  TGI: 17.1 µM
[32]
  GI50: 2.68 µM
  TGI: 10.3 µM
[33]
  GI50: 5.57 µM
  TGI: 18.6 µM
[34]
  GI50: 3.04 µM
  TGI: 11.3 µM
[35]
  GI50: 7.75 µM
  TGI: 22.5 µM
[36]
  GI50: 3.87 µM
  TGI: 15.5 µM
[37]
  GI50: 3.42 µM
  TGI: 13.6 µM
[38]
  GI50: 9.15 µM
  TGI: 21.4 µM
[39]
  GI50: 3.58 µM
  TGI: 30.6 µM
[40]
  GI50: 3.41 µM
  TGI: 54.6 µM
[41]
  GI50: 3.63 µM
  TGI: 14.7 µM
[42]
  GI50: 4.57 µM
  TGI: 20.4 µM
[43]
  GI50: 3.89 µM
  TGI: 14.7 µM
[44]
  GI50: 5.8 µM
  TGI: 21.3 µM
[45]
  GI50: 2.86 µM
  TGI: 11.6 µM
[46]
  GI50: 8.7 µM
  TGI: 23.9 µM
[47]
  GI50: 3.96 µM
  TGI: 15.8 µM
[48]
  GI50: 3.78 µM
  TGI: 16.7 µM
[49]
  GI50: 12 µM
  TGI: 26.2 µM
[50]
  GI50: 3.19 µM
  TGI: 12.1 µM
[51]
  GI50: 2.77 µM
  TGI: 13.5 µM
[52]
  GI50: 3.26 µM
  TGI: 13.7 µM
[53]
  GI50: 2.83 µM
  TGI: 11.8 µM
[54]
  GI50: 7.09 µM
  TGI: 22.6 µM
[55]
  GI50: 4.8 µM
  TGI: 17 µM
[56]
  GI50: 4.93 µM
  TGI: 17.4 µM
[57]
  GI50: 3.11 µM
  TGI: 12.8 µM

## COc1cccc(C2=C(c3cn(C)c4c(C)cccc34)C(=O)NC2=O)c1
[1]
  GI50: 20.6 µM
  TGI: > 25 µM

## CC1=C(C(=O)Nc2cc(F)c(F)cc2F)C(c2ccc(N(C)C)cc2)C(C(=O)Nc2cc(F)c(F)cc2F)=C(C)N1
[1]
  GI50: 30.1 µM
  TGI: > 100 µM

## CCCCCCCCCCCCNCCCc1ccccc1
[1]
  GI50: 1.54 µM
  TGI: 3.17 µM

## O=[N+]([O-])c1cc2c(ccc3ccccc32)o1
[1]
  GI50: 0.169 µM
  TGI: 0.446 µM

## NC(=O)c1c(NC(=O)c2ccc(C(F)(F)F)cc2Cl)sc2c1CCC(=O)C2
[1]
  GI50: 0.277 µM
  TGI: 1.04 µM

## O=C1C=CC(=O)N1c1ccc2ccccc2c1
[1]
  GI50: 3.56 µM
  TGI: 14.4 µM

## C=CC(=O)N1CCN(c2nc(OC[C@@H]3CCCN3C)nc3c(F)c(-c4nc(N)cc(C)c4C(F)(F)F)c(Cl)cc23)[C@@H](C)C1
[1]
  GI50: 1.3 µM
  TGI: 2.7 µM

## Cc1nc2ccccc2c(/C=C/c2ccc(C(F)(F)F)cc2)c1C(=O)/C=C/c1ccccc1
[1]
  GI50: 1.78 µM
  TGI: 3.7 µM

## O=C(Nc1ccc(Br)cc1)c1cc(Br)ccc1O
[1]
  GI50: 0.328 µM and 0.722 µM
  TGI: 1.68 µM and 3.57 µM

## COc1cc2c(cc1OCCCN1CCN(CCCOc3cc4c(cc3OC)C(=O)N3C[C@H](F)C[C@H]3C=N4)CC1)N=C[C@@H]1C[C@@H](F)CN1C2=O
[1]
  GI50: < 0.01 µM
  TGI: 0.0397 µM

## COc1ccc(C(=O)c2no[n+]([O-])c2C(=O)c2ccc(OC)cc2)cc1
[1]
  GI50: 1.37 µM
  TGI: 2.78 µM

## COC(=O)c1ccc(C)cc1C1CN=NC12Cc1c(C)cccc1C2=O (stereo not drawn)
[1]
  GI50: 30.7 µM
  TGI: > 100 µM

## COc1cc(/C=C/C(=O)c2cccc(-n3cc(-c4ccccc4)[nH]c3=O)c2)ccc1O
[1]
  GI50: 3.43 µM
  TGI: 22.2 µM

## Cc1cc(N)c2cc(NC(=O)/C=C\c3ccccc3Cl)ccc2n1
[1]
  GI50: 0.398 µM
  TGI: 1.48 µM

## CCn1cnc(C[C@H](NC(=O)[C@@H](NC(=O)Nc2cc(C(F)(F)F)cc(C(F)(F)F)c2)C(C)(C)C)C(=O)OC)c1
[1]
  GI50: 5.18 µM
  TGI: > 10 µM

## CC(C)(C)c1ccc(OCCCCCCCN2CCNCC2)cc1
[1]
  GI50: 1.84 µM
  TGI: 3.58 µM

## O=C1/C(=C/c2ccc([N+](=O)[O-])s2)Oc2ccc(Br)cc21
[1]
  GI50: 0.263 µM
  TGI: 0.781 µM

## Cc1nc2ccccc2c(/C=C/c2ccc(F)cc2)c1C(=O)/C=C/c1ccccc1
[1]
  GI50: 1.86 µM
  TGI: 4.26 µM

## O=C1c2c[n+](Cc3ccccc3)ccc2-c2nc3ccccc3c3ccnc1c23
[1]
  GI50: 0.389 µM
  TGI: 1.02 µM

## Nc1ncnc2c1ncn2C1OC(F)(COS(N)(=O)=O)C(O)C1O (stereo not drawn)
[1]
  GI50: > 100 µM
  TGI: > 100 µM

## COc1ccc(/C(=N/O)c2cc(F)c(F)c(OC)c2F)cc1O
[1]
  GI50: 0.552 µM
  TGI: > 100 µM

## CCc1n(Cc2ccc3ccccc3c2)cc[n+]1Cc1ccc2ccccc2c1
[1]
  GI50: 0.182 µM
  TGI: 0.859 µM

## COc1cccc(/C=C2\COc3ccc(O)c(O)c3C2=O)c1OC
[1]
  GI50: 1.67 µM
  TGI: 3.91 µM

## O=C(/C=C/c1cccc(Cl)c1)c1ccccc1
[1]
  GI50: 13.1 µM
  TGI: 26.9 µM

## CC(=O)OC1C(C)OC(Oc2c(-c3ccc(O)cc3)oc3cc(O)cc(O)c3c2=O)C(O)C1OC(C)=O (stereo not drawn)
[1]
  GI50: 17.8 µM
  TGI: 42.8 µM

## C=CCn1c(C)nc2cc(Nc3nc(N4CCCC4)nc4nc[nH]c34)ccc21
[1]
  GI50: > 100 µM
  TGI: > 100 µM
